Reference: patent US20230047788A1, “COMPOSITIONS COMPRISING 5-CHOLESTEN-3, 25-DIOL, 3-SULFATE (25HC3S) OR PHARMACEUTICALLY ACCEPTABLE SALT THEREOF AND AT LEAST ONE CYCLIC OLIGOSACCHARIDE” (Virginia Commonwealth University, priority 2016, published 2023)

Experiments:
[1] = Osmolality of 30 mg/mL 25HC3S, 250 mg/mL HPbCD, 10 mM phosphate solution; format: physicochemical; conditions: 30 mg/mL 25HC3S sodium salt, 10 mM sodium phosphate buffer in water
Procedure: The optimal concentration of HPbCD to solubilize a high amount of 25HC3S, and to contain a small amount of buffer (10 mM phosphate buffer) to minimize pH changes on stability, is 250 mg/mL HPbCD. The solution of 30 mg/mL 25HC3S sodium salt, 250 mg/mL HPbCD with 10 mM sodium phosphate buffer in water has an osmolality of approximately 320 mmol/kg. Isotonic solutions range from 270-340 mmol/kg. Higher concentrations of HPbCD greater than 250 mg/mL with higher than 30 mg/mL concentrations of 25HC3S lead to hypertonic solutions. Hypertonic solutions can cause pain upon subcutaneous and intramuscular injection. Conversely, concentrations of HPbCD much less than 250 mg/mL with much less than 30 mg/mL concentrations of 25HC3S require the addition of an isotonic agent, such as sodium chloride or mannitol, to bring the isotonicity into the expected range for a parenteral dosage form.

[2] = test system: mice overdosed with APAP; test: Mortality in mice overdosed with APAP (600 mg/kg); format: in vivo, C57BL/6J mice; conditions: APAP 600 mg/kg ip; 25 mg/kg 25HC3S iv 0.5 hours after APAP; 5 days after overdose
Procedure: The ability of 25HC3S to treat symptoms of APAP overdose was examined. 12-week-old male C57BL/6J mice were fasted overnight and injected (intraperitoneally) with APAP: 600 mg/kg (high dose) for mortality studies or 350 mg/kg (low dose) for liver function and gene studies. Control mice received only vehicle (20% (v/v) a propylene glycol, 4% (w/v) cyclodextrin (powdered hydroxypropyl beta cyclodextrin in sterile 10% (w/v) glucose.
(§1) A composition comprising 25 mg/kg of 25HC3S sodium salt in vehicle was administered intravenously to the experimental mice 0.5 hours after APAP administration. Mortality was monitored in the high dose mice. In the low dose mice, the liver function markers aspartate aminotransferase (AST), alanine aminotransferase (ALT), alkaline phosphatase (ALK) and lactate dehydrogenase (LDH), were measured in serum. Impacts on gene expression were determined by Quantitative Real-time PCR. Membrane potentials were measured using JC1 staining and flow cytometry.

[3] = test system: hepatic apoptosis-related genes; test: Hepatic gene expression by RT2 Profiler PCR Array in APAP overdosed mice; format: in vivo, C57BL/6J mice; conditions: liver, APAP 350 mg/kg mice, 24 h
Procedure: as §1
Changes in gene regulation in low dose mice 24 hours after the administration of vehicle and vehicle plus 25HC3S were investigated. The 12-week-old male C57BL/6J mice had received 350 mg/kg APAP via intraperitoneal injection and 30 min later received 7.6% glucose/H2O (C) or vehicle (20% PG/4% HCD/7.6% glucose, P) or 25HC3S (3S). Twenty four hours following APAP injection, liver tissue was harvested and total mRNA was extracted and analyzed using an RT^2 Profiler™ PCR Array assay. The listed genes are involved in apoptosis and/or immune system regulation.

[4] = test system: LPS endotoxin shock model; test: Survival in rodent model of LPS endotoxin shock; format: in vivo, C57BL/6J mice; conditions: LPS 5 mg/kg iv; 50 mg/kg 25HC3S ip 2 hours prior to LPS; six days after LPS; N=10
Procedure: The subjects for the study were 20 male C57BL/6J mice (20-22 weeks of age, 27-35 g).
A solution formulation of 25HC3S and its respective vehicle was used for the study. The vehicle was a solution of 4% (w/v) hydroxypropyl betadex, 10% (w/v) dextrose, with 10 mM sodium phosphate buffer in sterile water. Vehicle was stored at 2-8° C. storage and placed at room temperature for 30 minutes prior to dosing.
25HC3S sodium salt was pre-dissolved into the vehicle solution to result in a drug concentration of 5 mg/mL. The 25HC3S solution was ready-to-use at the start of dosing. It was also stored at 2-8° C. storage and placed at room temperature for 30 minutes prior to dosing the mice.
50 mg/kg of 25HC3S in vehicle or vehicle alone (N=10/group) were administered to mice once by intraperitoneal injection 2 hours prior to LPS delivery. A semi-lethal dose of LPS (5 mg/kg) was given by intravenous injection to the tail vein in order to induce an acute inflammatory response that mimics systemic sepsis-like conditions.
Mice were monitored for survival for 6 days after 25HC3S and LPS treatments. Animal checks for mortality were performed twice daily during the 6 day observation period. Animals were examined for any altered clinical signs, including gross motor and behavioral activity, and observable changes in appearance. […]

[5] = Compatibility of 25HC3S for Injection with container closure system; format: physicochemical; conditions: 10 mL glass vial, FluroTec coated stopper; up to 12 months 2-8°C, 6 months 25°C/60% RH and 40°C/75% RH, inverted
Procedure: 25HC3S for Injection is a sterile powder, for injection solution. The 25HC3S stability with the 10 mL glass vial and FluroTec® coated stopper was studied up to 12 months at 2-8° C., 6 months at 25° C./60% RH, and 6 months at 40° C./75% RH with vials stored in the inverted orientation.

C[C@H](CCCC(C)(C)O)[C@H]1CC[C@H]2[C@@H]3CC=C4C[C@@H](OS(=O)(=O)[O-])CC[C@]4(C)[C@H]3CC[C@]12C.[Na+] [25HC3S, 5-cholesten-3, 25-diol, 3-sulfate]
Osmolality [1]: approximately 320 mmol/kg
mice that had died [2]: one
Cd40 (NM_011611) gene expression, Fold vs P ([3]; vs P (vehicle) group): −2.7 Fold
Fasl (NM_010177) gene expression, Fold vs P ([3]; vs P (vehicle) group): −2.6 Fold
Gadd45a (NM_007836) gene expression, Fold vs P ([3]; vs P (vehicle) group): −10.9 Fold
Nol3 (NM_030152) gene expression, Fold vs P ([3]; vs P (vehicle) group): 3.6 Fold
Pvr (NM_027514) gene expression, Fold vs P ([3]; vs P (vehicle) group): −3.3 Fold
Tnf (NM_013693) gene expression, Fold vs P ([3]; vs P (vehicle) group): −2.4 Fold
Apaf1 (NM_009741) gene expression, Fold vs C ([3]; vs control (C) group): −2.2 Fold
Cd40 (NM_011611) gene expression, Fold vs C ([3]; vs control (C) group): −2.1 Fold
Fasl (NM_010177) gene expression, Fold vs C ([3]; vs control (C) group): −2.1 Fold
Gadd45a (NM_007836) gene expression, Fold vs C ([3]; vs control (C) group): −9.3 Fold
Nol3 (NM_030152) gene expression, Fold vs C ([3]; vs control (C) group): 5.3 Fold
Pvr (NM_027514) gene expression, Fold vs C ([3]; vs control (C) group): −3.9 Fold
Tnfrsf11b (NM_008764) gene expression, Fold vs C ([3]; vs control (C) group): −2.9 Fold
mice that had died [4]: 40%
compatibility with container closure system [5]: good compatibility
